Test results published in PMC2749524 (Cancer research, 2009).

Key:
[1] = system: Src family kinases / Focal Adhesion Kinase phosphorylation in U87MG cells; assay: Western blot of phospho-Src, phospho-FAK and β3 in U87MG cell lysates; assay type: cell-based, human; conditions: 100 nM
[2] = system: αVβ3 focal adhesions in U87MG cells; assay: Immunofluorescence of dimerized αVβ3; assay type: cell-based, human; conditions: 100 nM, 3 h, U87MG on fibronectin
[3] = system: αVβ3 integrin on U87MG cells; assay: Flow cytometry of surface αVβ3 integrin expression; assay type: cell-based, human; conditions: 100 nM, 6 or 24 h, FACS, LM609 antibody, samples in duplicate
[4] = system: U87MG xenografts (αVβ3 integrin activity); assay: microPET/CT tumor uptake of [^64Cu]DOTA–c; assay type: in vivo, SCID mice; conditions: 72 h; for reduction of [^64Cu]DOTA–c(RGDfK) tumor uptake: vs vehicle controls, PET 15 h post injection
U87MG xenografts [5] = assay: U87MG xenograft tumor growth; assay type: in vivo, SCID mice
U87MG xenografts [6] = assay: Histology and immunohistochemistry of frozen tumor sections; assay type: in vivo, SCID mice; conditions: 95 mg/kg, 72 h
[7] = system: U87MG xenografts (tumor glucose metabolism); assay: FDG microPET/CT tumor uptake in U87MG xenografts

Row | Structure (SMILES) | total β3 levels ([1]; 6 or 24 h) | FAK phosphorylation at tyrosine 397 ([1]; 6 h) | FAK phosphorylation at tyrosine 861 ([1]; 6 h) | SFK phosphorylation at tyrosine 416 ([1]; 6 h) | αVβ3 clustering in focal adhesion complexes [2] | total dimerized cell surface αVβ3 protein level [3] | reduction of [^64Cu]DOTA–c(RGDfK) tumor uptake ([4]; 72 mg/kg daily gavage) | reduction of [^64Cu]DOTA–c(RGDfK) tumor uptake ([4]; 95 mg/kg daily gavage) | tracer distribution and organ uptake, treated vs untreated animals ([4]; 95 mg/kg, dynamic PET, normal organs, except U87 xenografts) | difference in tumor size between control and treated animals (U87MG xenografts [5]; after 10 consecutive days of treatment) | difference in tumor size at the time of PET imaging (U87MG xenografts [5]; day 3, p=0.1272) | tumor viability and vascularization (H&E, CD31) (U87MG xenografts [6]) | phospho-FAK (Y861) staining in tumors (U87MG xenografts [6]; immunohistochemistry, relative to control) | αVβ3 staining in tumors (U87MG xenografts [6]; treated vs control, LM609 antibody) | change in tumor FDG uptake ([7]; 95 mg/kg, 72 h, p=0.1704) | tumor FDG uptake in vehicle controls ([7]; U87MG xenograft, 7–10 MBq FDG, 1 h uptake, mean ± SD)
1 | Cc1nc(Nc2ncc(C(=O)Nc3c(C)cccc3Cl)s2)cc(N2CCN(CCO)CC2)n1 [dasatinib] | nor did total β3 levels decrease | decrease | target inhibition | target inhibition | no longer clustered in focal adhesion complexes | did not change relative to control | 39% | 59% | virtually identical | six-fold | no appreciable difference | remained viable and vascularized | reduced | no difference | no significant change | 
2 | OC[C@H]1OC(O)[C@H]([18F])[C@@H](O)[C@@H]1O (stereo partly shown) [FDG, [^18F]fluorodeoxyglucose] |  |  |  |  |  |  |  |  |  |  |  |  |  |  |  | 10.39±1.04 % ID/g
